# Experimental data: paper PMC3914206
# Experiments:
# Assay type in all cases: binding
# Conditions in all cases: Compound Concentration 10 µM
# panel of 442 kinases [1] = biological target: T1, panel of 442 kinases (Homo sapiens, UniProt P06213)
# T1 construct: purchased KINOMEscan
# Excerpt: (§1) We assessed the selectivity of members of this scaffold using the KINOMEscan methodology across a near comprehensive panel of 442 kinases [[18,27]].
# panel of 442 kinases [2] = biological target: T2, panel of 442 kinases (Homo sapiens, UniProt P07949, M918T)
# T2 construct: purchased KINOMEscan
# T2 sequence (P07949 29-1114 M918T): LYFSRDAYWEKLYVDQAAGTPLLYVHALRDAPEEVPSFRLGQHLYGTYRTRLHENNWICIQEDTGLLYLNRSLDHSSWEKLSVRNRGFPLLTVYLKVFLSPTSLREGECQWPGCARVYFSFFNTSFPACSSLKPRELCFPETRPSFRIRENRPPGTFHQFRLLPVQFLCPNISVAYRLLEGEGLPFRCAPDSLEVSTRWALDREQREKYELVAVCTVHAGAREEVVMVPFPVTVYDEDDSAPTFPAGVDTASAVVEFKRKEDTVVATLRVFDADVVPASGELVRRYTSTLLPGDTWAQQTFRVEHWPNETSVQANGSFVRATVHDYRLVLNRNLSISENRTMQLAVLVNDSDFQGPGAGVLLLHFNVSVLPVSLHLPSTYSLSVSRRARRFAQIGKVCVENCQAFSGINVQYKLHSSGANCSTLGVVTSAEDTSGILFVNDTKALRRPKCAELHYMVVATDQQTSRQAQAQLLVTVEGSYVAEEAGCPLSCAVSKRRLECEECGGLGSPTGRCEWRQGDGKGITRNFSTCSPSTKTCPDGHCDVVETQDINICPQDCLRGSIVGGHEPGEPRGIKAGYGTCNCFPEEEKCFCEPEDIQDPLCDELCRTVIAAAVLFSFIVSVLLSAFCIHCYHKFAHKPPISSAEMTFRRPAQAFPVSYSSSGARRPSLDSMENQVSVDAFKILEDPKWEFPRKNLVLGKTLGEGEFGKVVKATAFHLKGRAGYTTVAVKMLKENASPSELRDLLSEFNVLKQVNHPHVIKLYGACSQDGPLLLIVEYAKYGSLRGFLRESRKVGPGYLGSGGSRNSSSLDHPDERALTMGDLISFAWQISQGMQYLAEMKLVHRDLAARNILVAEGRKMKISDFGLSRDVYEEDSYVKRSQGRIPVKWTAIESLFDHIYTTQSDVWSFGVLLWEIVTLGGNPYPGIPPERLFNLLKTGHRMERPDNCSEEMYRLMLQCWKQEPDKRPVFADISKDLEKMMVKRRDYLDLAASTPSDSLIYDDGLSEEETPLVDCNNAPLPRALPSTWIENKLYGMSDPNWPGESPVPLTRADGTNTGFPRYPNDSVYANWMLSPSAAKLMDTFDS
# Excerpt: as §1
# panel of 442 kinases [3] = biological target: T3, panel of 442 kinases (Homo sapiens, UniProt Q9H4B4)
# T3 construct: purchased KINOMEscan
# T3 sequence (Q9H4B4 whole entry): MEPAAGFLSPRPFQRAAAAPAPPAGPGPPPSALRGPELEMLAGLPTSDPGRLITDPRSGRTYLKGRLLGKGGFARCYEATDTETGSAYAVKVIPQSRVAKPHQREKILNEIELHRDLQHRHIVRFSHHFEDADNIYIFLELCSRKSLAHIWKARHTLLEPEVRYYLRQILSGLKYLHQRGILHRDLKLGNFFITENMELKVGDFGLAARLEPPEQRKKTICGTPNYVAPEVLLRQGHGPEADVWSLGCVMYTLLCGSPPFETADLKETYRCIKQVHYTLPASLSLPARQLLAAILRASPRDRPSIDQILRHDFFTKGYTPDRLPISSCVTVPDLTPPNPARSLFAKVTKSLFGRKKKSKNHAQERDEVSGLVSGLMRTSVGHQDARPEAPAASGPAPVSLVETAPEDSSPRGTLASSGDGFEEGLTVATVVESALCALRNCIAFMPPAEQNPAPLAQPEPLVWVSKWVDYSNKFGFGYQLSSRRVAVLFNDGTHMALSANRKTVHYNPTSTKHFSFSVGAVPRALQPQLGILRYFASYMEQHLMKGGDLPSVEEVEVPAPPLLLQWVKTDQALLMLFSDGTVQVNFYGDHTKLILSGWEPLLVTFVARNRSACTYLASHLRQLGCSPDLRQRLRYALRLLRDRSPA
# Excerpt: as §1
# T1 sequence (P06213 28-1382): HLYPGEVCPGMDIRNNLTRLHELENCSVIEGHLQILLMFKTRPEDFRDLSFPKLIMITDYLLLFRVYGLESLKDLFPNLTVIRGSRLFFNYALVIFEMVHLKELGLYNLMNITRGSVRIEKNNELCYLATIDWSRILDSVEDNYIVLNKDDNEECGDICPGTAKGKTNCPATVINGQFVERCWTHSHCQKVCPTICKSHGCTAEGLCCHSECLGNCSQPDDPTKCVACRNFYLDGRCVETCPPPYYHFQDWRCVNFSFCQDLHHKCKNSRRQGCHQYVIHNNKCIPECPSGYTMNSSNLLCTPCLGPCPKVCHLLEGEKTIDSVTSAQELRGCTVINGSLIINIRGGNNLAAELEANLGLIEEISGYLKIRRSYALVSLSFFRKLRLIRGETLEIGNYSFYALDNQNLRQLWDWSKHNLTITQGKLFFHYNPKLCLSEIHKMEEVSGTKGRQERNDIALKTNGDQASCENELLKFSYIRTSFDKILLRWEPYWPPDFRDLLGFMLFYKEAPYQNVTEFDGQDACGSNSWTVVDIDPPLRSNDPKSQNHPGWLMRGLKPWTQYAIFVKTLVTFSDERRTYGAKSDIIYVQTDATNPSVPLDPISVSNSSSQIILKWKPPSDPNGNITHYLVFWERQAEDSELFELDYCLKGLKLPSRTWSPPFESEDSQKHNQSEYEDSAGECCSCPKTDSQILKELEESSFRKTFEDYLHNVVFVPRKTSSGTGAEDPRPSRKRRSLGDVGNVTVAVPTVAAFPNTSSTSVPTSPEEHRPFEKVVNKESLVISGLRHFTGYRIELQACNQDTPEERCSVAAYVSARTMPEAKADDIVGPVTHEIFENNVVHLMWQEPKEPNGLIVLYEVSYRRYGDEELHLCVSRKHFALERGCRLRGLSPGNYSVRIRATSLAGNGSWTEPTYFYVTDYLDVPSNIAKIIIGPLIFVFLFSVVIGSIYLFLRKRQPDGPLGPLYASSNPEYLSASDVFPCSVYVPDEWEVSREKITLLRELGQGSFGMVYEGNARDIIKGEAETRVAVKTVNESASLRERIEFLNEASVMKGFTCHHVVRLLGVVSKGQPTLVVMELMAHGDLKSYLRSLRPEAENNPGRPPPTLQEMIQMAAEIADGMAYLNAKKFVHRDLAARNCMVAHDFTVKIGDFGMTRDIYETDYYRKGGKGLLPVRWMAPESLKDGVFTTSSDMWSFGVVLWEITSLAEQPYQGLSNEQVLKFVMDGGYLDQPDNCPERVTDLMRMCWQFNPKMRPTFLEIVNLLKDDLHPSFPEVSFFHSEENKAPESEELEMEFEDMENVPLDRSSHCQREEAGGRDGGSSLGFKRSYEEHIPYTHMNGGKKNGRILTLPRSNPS
smiles,measurement,setting,value
COc1cc(C(=O)N2CCC(N3CCN(C)CC3)CC2)ccc1Nc1ncc2c(n1)N(C)c1ccccc1C(=O)N2C [15 (LRRK2-IN-1)],KINOMEscan: INSR,panel of 442 kinases [1],84
same,KINOMEscan: RET(M918T),panel of 442 kinases [2],100
same,KINOMEscan: PLK3,panel of 442 kinases [3],51
COc1cc(C(=O)N2CCC(N3CCN(C)CC3)CC2)ccc1Nc1ncc2c(n1)N1CCc3cccc(c31)C(=O)N2C [Compound 24],KINOMEscan: INSR,panel of 442 kinases [1],78
same,KINOMEscan: RET(M918T),panel of 442 kinases [2],81
same,KINOMEscan: PLK3,panel of 442 kinases [3],3.8
"COc1cc(C(=O)N2CCC(N3CCN(C)CC3)CC2)ccc1Nc1ncc2c(n1)N(C1CCCC1)c1ccccc1C(=O)N2C [Compound 25, 11-cyclopentyl-2-((2-methoxy-4-(4-(4-methylpiperazin-1-yl)piperidine-1-carbonyl)phenyl)amino)-5-methyl-5H-benzo[e]pyrimido[5,4-b][1,4]diazepin-6(11H)-one]",KINOMEscan: INSR,panel of 442 kinases [1],88
same,KINOMEscan: RET(M918T),panel of 442 kinases [2],94
same,KINOMEscan: PLK3,panel of 442 kinases [3],73
CCOc1cc(C(=O)N2CCC(N3CCN(C)CC3)CC2)ccc1Nc1ncc2c(n1)N(C1CCCC1)c1ccccc1C(=O)N2C [Compound 26],KINOMEscan: INSR,panel of 442 kinases [1],100
same,KINOMEscan: RET(M918T),panel of 442 kinases [2],100
same,KINOMEscan: PLK3,panel of 442 kinases [3],84
